Laboratory results reported in patent US12419976B2, “Hybrid tracers for targeted cancer imaging and treatment” (ACADEMISCH ZIEKENHUIS LEIDEN (H.O.D.N. LUMC), priority 2018, dated 2025).
Where “and” joins values, the source holds several entries; their conditions need not be identical. Equal entries are not always repeated. Where a SMILES comes first, the peptide text is derived from it. [ ]: non-standard residue; d: D form. The star is where a group is joined. X1 = O=C(O)CC[C@H](NC(=O)N[C@@H](CCCCNC(=O)CCCCCCC(=O)*)C(=O)O)C(=O)O; d2Nal = N[C@H](Cc1ccc2ccccc2c1)C(=O)O; Mercaptoacetyl = O=C(CS)*

How the values were obtained:
[1] = Photophysical properties of Cy5 dyes and hybrid tracers in PBS; format: physicochemical; settings: for Brightness: determined using the ε of the hybrid tracer's corresponding fluorophore
Protocol: The brightness of a dye—one of the most important photophysical characteristics in a clinical setting—is the product of its molar extinction coefficient (e) and quantum yield (ϕF). We therefore set out to determine the e of each fluorophore by creating a linear concentration range (7.5-0.25 μM) in PBS and measuring the corresponding absorbance (Table 1). The addition of a sulfonate on the carboxylic-acid-containing indoline moiety diminishes the epsilon and the use of extra aryl moieties on the cyanine backbone greatly diminishes the dyes' solvability and thus their epsilon is greatly diminished as well.
The ϕF of a fluorophore is the relation between the number of photons emitted divided by the number of photons absorbed by a single molecule. It is therefore also called the emission efficiency. […] Perhaps an asymmetrical cyanine core, with its significant electron density imbalance, is an inefficient fluorophore. In line with our expectations-since the benzo[e]indole caused J-aggregate formation, the ϕF of benzo[e]indole-containing fluorophores were diminished. […] The only trend derived from the abovementioned data is that the free fluorophore benefits (when optimising emission efficiency) from symmetrical substituents on the cyanine structure.
As the brightness of a fluorophore (or hybrid tracer) is one of its most important photophysical traits, we calculated the brightness for all fluorophores. In order to give insight in the hybrid tracer's optical performance, the brightness was determined by using the ε of its corresponding fluorophore in PBS. […] EuK(SO3)-Cy5-MAS3 thus contains the most favourable photophysical characteristics out of these 6 exemplary hybrid tracers.

[2] = Lipophilicity logP(o/w) of 99mTc-labeled hybrid tracers; format: physicochemical; settings: octanol/water, n = 6
serum albumin = serum albumin (Homo sapiens, UniProt P02768); assay: Plasma protein binding (serum binding); format: in vitro ADME; settings: for Plasma protein binding (PPB): FIG. 2A; for fraction unbound: serum albumin, n = 3 (Table 3)
Chain of serum albumin (P02768 25-609): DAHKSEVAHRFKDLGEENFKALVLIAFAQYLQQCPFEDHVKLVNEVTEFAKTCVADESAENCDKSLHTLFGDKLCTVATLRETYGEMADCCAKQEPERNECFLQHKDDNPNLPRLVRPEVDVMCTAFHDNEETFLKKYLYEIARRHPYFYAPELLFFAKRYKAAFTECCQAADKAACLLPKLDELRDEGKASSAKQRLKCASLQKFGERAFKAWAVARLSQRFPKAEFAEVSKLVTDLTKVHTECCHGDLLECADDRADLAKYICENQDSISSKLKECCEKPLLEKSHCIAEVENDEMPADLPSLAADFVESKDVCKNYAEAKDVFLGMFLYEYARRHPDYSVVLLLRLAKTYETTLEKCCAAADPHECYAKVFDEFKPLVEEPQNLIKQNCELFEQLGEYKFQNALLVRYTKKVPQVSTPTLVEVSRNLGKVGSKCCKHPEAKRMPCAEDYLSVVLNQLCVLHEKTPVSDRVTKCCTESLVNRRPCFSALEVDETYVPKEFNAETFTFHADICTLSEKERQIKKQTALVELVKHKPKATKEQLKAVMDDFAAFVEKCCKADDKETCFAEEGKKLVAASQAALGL
Source text: FIG. 2 illustrates the results for plasma protein interaction assays for exemplary hybrid tracer compounds. A) Plasma protein binding as a percentage of the indicated hybrid tracers bound to serum albumin. All hybrid tracers portray significant differences (p<0.05) except when noted (ns).
Serum binding, or rather plasma protein binding (PPB) is a useful pharmacokinetic characteristic for the initial assessment of tracer candidates prior to in vivo use as PPB is directly related to, e.g., blood retention and clearance rates. All hybrid tracers have PPB with values between 52-89% with an average of 76±12% (FIG. 2A). The benzo[e]indole-containing hybrid tracers (EuK(Ar)-Cy5-MAS3, EuK-Cy5-(Ar)MAS3 and EuK(Ar)Cy5-(Ar)MAS3) tend to have the highest PPB. […] This can be explained by Sudlow's site, a binding pocket in albumin's subdomain IIA, which binds bulky heterocyclic anions. No clear correlation could be found between c log D and serum binding. Even though PPB has a relation to the lipophilicity, it was expected that we could not predict the PPB based on the c log D as the PPB cannot be explained by a single physiochemical characteristic.

[3] = Stability in serum at 37° C., absorbance and fluorescence after 24 h; format: in vitro ADME; settings: for Serum stability after 24 h, remaining absorbance / Serum stability after 24 h, remaining fluorescence: n = 2
Protocol: Not only serum binding, but also the stability in serum is valuable. This characteristic is another brick in the wall for the preclinical evaluation of hybrid tracers since this indicates a compound's in vivo stability. Clearly, any compound degrading in an in vivo environment is not suited for clinical use. All hybrid tracers were incubated in serum at 37° C. and their absorbance and fluorescence were measured after 24 h.

PSMA [4] = target: T1, PSMA (Homo sapiens, UniProt Q04609); assay: Competitive binding assay, LNCaP cells, EuK[125I]I-BA radioligand; settings: for IC50: human LNCaP cells, EuK[125I]I-BA competitive radioligand, n ≥ 3, read-out: IC50 (PSMA affinity)
T1 construct: endogenous in cells; host or cells: LNCaP cells
T1 sequence (Q04609 whole entry): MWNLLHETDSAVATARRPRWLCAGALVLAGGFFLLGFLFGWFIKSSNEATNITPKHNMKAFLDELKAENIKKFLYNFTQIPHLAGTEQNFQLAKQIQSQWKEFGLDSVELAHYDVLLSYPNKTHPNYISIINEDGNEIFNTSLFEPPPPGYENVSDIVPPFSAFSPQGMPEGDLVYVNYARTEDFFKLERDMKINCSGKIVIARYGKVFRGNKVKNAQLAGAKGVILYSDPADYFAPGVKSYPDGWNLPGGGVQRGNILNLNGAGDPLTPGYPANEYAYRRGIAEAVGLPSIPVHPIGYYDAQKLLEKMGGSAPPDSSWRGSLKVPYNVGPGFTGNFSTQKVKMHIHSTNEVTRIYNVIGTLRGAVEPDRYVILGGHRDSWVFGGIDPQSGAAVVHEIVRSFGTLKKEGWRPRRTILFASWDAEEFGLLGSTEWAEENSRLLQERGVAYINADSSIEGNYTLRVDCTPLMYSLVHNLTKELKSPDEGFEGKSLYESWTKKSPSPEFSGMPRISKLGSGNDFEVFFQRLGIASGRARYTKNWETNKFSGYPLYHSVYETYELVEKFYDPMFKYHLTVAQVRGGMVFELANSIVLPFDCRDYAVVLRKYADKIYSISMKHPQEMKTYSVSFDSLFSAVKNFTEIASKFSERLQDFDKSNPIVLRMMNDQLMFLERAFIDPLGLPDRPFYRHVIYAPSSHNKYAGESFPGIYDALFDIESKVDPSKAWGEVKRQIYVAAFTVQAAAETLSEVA
Protocol: (§1) Fluoresence confocal microscopy was utilised as a tool for receptor localisation. As depicted in FIG. 3, a typical PSMA-targeting tracer brightly stains the extracellular receptor. IC50 was determined in a competitive binding assay using human LNCaP cells and EuK[^125I]I-BA as competitive radioligand.

[5] = system: orthotopically transplanted PC346C cells; assay: Ex vivo biodistribution in tumour-bearing mice; settings: for Hepatic clearance: FIG. 5C, in %ID/g; for Tumour-to-fat ratio (T/F): FIG. 5D
Protocol: (§2) A) In vivo SPECT imaging. Coronal SPECT imaging image of prostate tumour-bearing mice injected with either one of the PSMA hybrid tracer analogues. Organs are denoted as Lu (lungs), Li (liver), G (gallbladder), S (spleen), K (kidneys), B (bladder) and T (tumour). B) Comparison of biodistribution of the hybrid tracer matrix compared to the clinically approved tracer PSMA I&S, with C) providing the biodistribution of hybrid tracer EUK(SO3)—CY5-MAS3. Biodistribution pattern at 2 h post injection of the different hybrid tracers from the matrix compared to the reference tracer PSMA I&S depicted as percentage of the injected dose per gram tissue (% ID/g).
FIG. 5 illustrates biodistribution parameters and tumour uptake for exemplary hybrid tracers. Overview of A) the % Injected activity found in all excised organs percentage of the injected activity that remained at 2 h post tracer injection (all ns), B) the amount of radioactivity still present in the blood pool and C) no significant differences in hepatic clearance between the compounds. To highlight the visibility of the tumour over background tissue notorious for occluding signal within the area of the prostate, the D) tumour-to-fat and E) the tumour-to-blood ratio are provided for the individual hybrid tracers. Significance portrayed as: nothing (non-significant) *(p≤0.05) **(p≤0.01) ***(p≤0.001).
(§3) The in vivo characteristics were investigated in male BALB/c nude mice using orthotopically transplanted PC346C cells. These mice were analysed in various ways, i.e., in vivo nuclear imaging (SPECT) in tumour-bearing mice, in vivo optical imaging (fluorescence imaging) in tumour-bearing mice, ex vivo biodistribution (percentage injected dose per gram (% ID/g)) in healthy and tumour-bearing mice and ex vivo fluorescence imaging.

[6] = system: orthotopically transplanted PC346C cells; assay: In vivo SPECT imaging in tumour-bearing mice; settings: tumour-bearing nude BALB/c mice, FIG. 4A
Protocol: as §2, §3

PSMA [7] = target: T1, PSMA; assay: Fluorescence confocal microscopy of LNCaP cells; format: cell-based; settings: FIG. 3
Protocol: A) provides a brightfield image of incubated cells. B) provides an overlay of confocal images of incubated cells with Cy5-related signal of the PSMA-targeting tracer in red, the nucleus in blue and lysosomes in the cytoplasm in green. C) provides an overlay of the confocal and brightfield images.
as §1

| Structure (SMILES) | Stokes shift [1] | ΦF (quantum yield) [1] | λem [1] | λex [1] | Brightness [1] | logP [2] | Plasma protein binding (PPB) (serum albumin) | fraction unbound (serum albumin) | Serum stability after 24 h, remaining absorbance [3] | Serum stability after 24 h, remaining fluorescence [3] | IC50 (PSMA [4]) | Hepatic clearance [5] | Tumour-to-fat ratio (T/F) [5] | Kidney accumulation ([5]; biodistribution 2 h post injection) | Nuclear (SPECT) imaging of the tumour [6] | PSMA affinity relative to EuK-Cy5(SO3)-MAS3 (PSMA [4]; ratio of affinities) | Staining of LNCaP cells (confocal) (PSMA [7]) | Tumour-to-blood ratio (T/B) ([5]; FIG. 5E) | Serum stability (comparison between tracers) ([3]; p<0.05) | Blood retention ([5]; 2 h post injection, FIG. 5B) |
| --- | --- | --- | --- | --- | --- | --- | --- | --- | --- | --- | --- | --- | --- | --- | --- | --- | --- | --- | --- | --- |
| CC(=O)SCC(=O)NC(CO)C(=O)NC(CO)C(=O)NC(CO)C(=O)NCCCCCC(=O)NCCCCN1C(=CC=CC=CC2=[N+](CCCCCC(=O)NCCCCC(NC(=O)NC(CCC(=O)O)C(=O)O)C(=O)O)c3ccccc3C2(C)C)C(C)(C)c2c1ccc1ccccc21 (stereo not shown) [EuK-Cy5-(Ar)MAS3] | 17 nm | 9% | 680 nm | 663 nm | 5^‡ 10^3 M^−1 · cm^−1 | -1.84 ± 0.06 | highest PPB | 0.11 | 75 ± 0 % remaining | 76 ± 0 % remaining | 164 ± 76.9 nM |  |  |  |  |  |  |  |  |  |
| CC(=O)SCC(=O)NC(CO)C(=O)NC(CO)C(=O)NC(CO)C(=O)NCCCCCC(=O)NCCCCN1C(=CC=CC=CC2=[N+](CCCCCC(=O)NCCCCC(NC(=O)NC(CCC(=O)O)C(=O)O)C(=O)O)c3ccccc3C2(C)C)C(C)(C)c2ccccc21 (stereo not shown) [EuK-Cy5-MAS3] | 18 nm | 16% | 663 nm | 644 nm |  | -2.13 ± 0.1 |  | 0.117 | 80 ± 6 % remaining | 86 ± 5 % remaining | 175 ± 61.6 nM | 19.93±13.44 | 2542±287 |  |  |  |  |  |  |  |
| O=C(O)CC[C@H](NC(=O)N[C@@H](CCCCNC(=O)CCCCCCC(=O)NCCCC[C@@H](NC(=O)[C@@H](Cc1ccc2ccccc2c1)NC(=O)[C@@H](Cc1ccc(O)cc1)NC(=O)[C@@H](CO)NC(=O)[C@@H](CO)NC(=O)[C@@H](CO)NC(=O)CS)C(=O)O)C(=O)O)C(=O)O [PSMA I&S, reference compound] (Mercaptoacetyl-[dS][dS][dS][dY][d2Nal][dK](X1)-OH) |  |  |  |  |  |  |  |  |  |  |  |  |  | 186.0±23.0 ID/g |  |  |  |  |  |  |
| CC(=O)SCC(=O)NC(CO)C(=O)NC(CO)C(=O)NC(CO)C(=O)NCCCCCC(=O)NCCCCN1C(=CC=CC=CC2=[N+](CCCCCC(=O)NCCCCC(NC(=O)NC(CCC(=O)O)C(=O)O)C(=O)O)c3ccccc3C2(C)C)C(C)(C)c2cc(S(=O)(=O)[O-])ccc21 (stereo not shown) [EuK-Cy5-(SO3)MAS3] | 16 nm | 7% | 664 nm | 648 nm | 10^‡ 10^3 M^−1 · cm^−1 | -2.7 ± 0.01 | significantly higher than the PPB of EuK-Cy5-MAS3 | 0.126 | 82 ± 7 % remaining | 85 ± 1 % remaining | 119 ± 117 nM |  | 2658±659 |  | clear nuclear imaging of the tumour |  |  |  |  |  |
| CC(=O)SCC(=O)NC(CO)C(=O)NC(CO)C(=O)NC(CO)C(=O)NCCCCCC(=O)NCCCCN1C(=CC=CC=CC2=[N+](CCCCCC(=O)NCCCCC(NC(=O)NC(CCC(=O)O)C(=O)O)C(=O)O)c3ccc(S(=O)(=O)[O-])cc3C2(C)C)C(C)(C)c2ccccc21 (stereo not shown) [EuK(SO3)-Cy5-MAS3] | 16 nm |  | 664 nm | 648 nm |  | -2.86 ± 0.05 | significantly higher than the PPB of EuK-Cy5-MAS3 | 0.15 | 97 ± 2 % remaining | 89 ± 6 % remaining | 19 nM and 19.2 nM | 2.90±2.06 |  |  | clear nuclear imaging of the tumour | more than 9 fold | PSMA-related staining of LNCaP cells | 1713 |  |  |
| CC(=O)SCC(=O)NC(CO)C(=O)NC(CO)C(=O)NC(CO)C(=O)NCCCCCC(=O)NCCCCN1C(=CC=CC=CC2=[N+](CCCCCC(=O)NCCCCC(NC(=O)NC(CCC(=O)O)C(=O)O)C(=O)O)c3ccc4ccccc4c3C2(C)C)C(C)(C)c2c1ccc1ccccc21 (stereo not shown) [EuK(Ar)-Cy5-(Ar)MAS3] | 18 nm | 14% | 700 nm | 682 nm | 7^‡ 10^3 M^−1 · cm^−1 |  | highest PPB |  |  |  | 345 nM | 0.87±0.66 |  |  | clear nuclear imaging of the tumour |  |  |  | significantly lower serum stability |  |
| CC(=O)SCC(=O)NC(CO)C(=O)NC(CO)C(=O)NC(CO)C(=O)NCCCCCC(=O)NCCCCN1C(=CC=CC=CC2=[N+](CCCCCC(=O)NCCCCC(NC(=O)NC(CCC(=O)O)C(=O)O)C(=O)O)c3ccc4ccccc4c3C2(C)C)C(C)(C)c2ccccc21 (stereo not shown) [EuK(Ar)-Cy5-MAS3] | 18 nm | 9% | 682 nm | 664 nm | 3^‡ 10^3 M^−1 · cm^−1 | -1.75 ± 0.1 | highest PPB | 0.093 | 85 ± 3 % remaining | 79 ± 1 % remaining | 113 ± 35.9 nM | 0.94±0.13 and 1.10±0.14 |  |  |  |  |  |  |  | 6.91±1.08 ID/g |
